Read-outs that look alike come from different tables or passages of the source.
Assays:
[1] = Determination of the blood-to-plasma ratio (spiked whole blood and plasma, GC–MS of plasma); assay type: in vitro ADME; conditions: pooled human blood, haematocrit 41%, 1 h at 37 °C; for Kb/p experimental (blood-to-plasma ratio): 5 µM; for blood plasma ratio at 1 h, 5 µM: both sexes, pooled whole blood and plasma, read-out: Kb/p experimental (blood-to-plasma ratio)
Experimental: Human blood (pooled, from three male donors and three female donors) was obtained from Seralab (West Sussex, UK). Blood was received chilled with sodium citrate as an anticoagulant and kept at 4 °C until use. The blood was used prior to its expiration date. Blood haematocrit was 41%, as provided by the supplier.
In this method, only analysis of the plasma is required. Briefly, the compound is spiked into equal volumes of whole blood and plasma. Following equilibration, the whole blood is centrifuged to extract the plasma. The extracted plasma and the original plasma are analysed to obtain compound concentrations. The blood-to-plasma ratio can then be calculated from Eq. 1 (shown below).
In this work, aliquots of whole blood (5 mL) were centrifuged at 2500 rpm for 20 min to provide plasma. This was performed on the day of the experiments. The plasma was removed and stored at 4 °C until use (typically within 2 h).
The compounds were dissolved in DMSO or acetonitrile to produce 5 mM stock solutions. Stock solutions were diluted with PBS (pH 7.4) to produce working solutions (50 µM) on the day of experimentation. Stock solutions were stored for no longer than 1 week. Appropriate volumes of working solutions were added to blood or plasma to yield a final compound concentration of 5 µM (final solvent concentrations were 0.1%). The treated blood or plasma samples were incubated for 1 h at 37 °C. Following incubation, the blood sample was removed and centrifuged at 2500 rpm for 20 min and the plasma was extracted. The 250 µL of extracted plasma (from spiked whole blood) and 250 µL of spiked plasma had ice-cold acetonitrile added to precipitate proteins (4:1 ratio of acetonitrile-to-plasma). Both plasma samples were then centrifuged at 10,000 rpm for 20 min. The supernatants were collected and evaporated under a stream of nitrogen using a Biotage Turbovap LV Evaporator. The evaporated samples were reconstituted in 150 µL acetonitrile and analysed using gas chromatography–mass spectrometry (GC–MS).
The […] was calculated using Eq. 11 Ke/p=1/H×CPRef/CP-1+1, where Ke/p is the red blood cell partition coefficient, H is the haematocrit, CPRef is the concentration (µM) in the reference plasma, and CP is the concentration (µM) in the plasma separated from the whole blood.
Ke/p describes the ratio of the concentration of drug in the red blood cells (not including plasma) to the concentration of drug in plasma. Ke/p can be converted to the blood-to-plasma ratio (Kb/p) with Eq. 22 Kb/p=(Ke/p×H)+1-H, where Kb/p is the blood-to-plasma ratio, Ke/p is the […], and H is the haematocrit. Kb/p therefore describes the ratio of the concentration of drug in whole blood (containing both red blood cells and plasma) to the concentration of the drug in plasma.

[2] = ref 13; cited from earlier work
GABAA receptor = target: GABAA receptor; set-up: method as in PMID 29685303; conditions: QSAR, previous work; cited from earlier work
[3] = cited from earlier work; for Kb/p literature (blood-to-plasma ratio): literature range
[4] = set-up: method as in PMID 31933443; conditions: user reports; cited from earlier work

In the case of `CCc1cc2c(s1)-n1c(C)nnc1CN=C2c1ccccc1` [Deschloroetizolam, deschloroetizolam], the “Kb/p experimental (blood-to-plasma ratio)” value [1] is given as 0.68 ± 0.06 and the plasma protein binding [2] is given as 87.2%.
For `Cc1nnc2n1-c1ccc([N+](=O)[O-])cc1C(c1ccccc1F)=NC2` [flunitrazolam], the “predicted log 1/c value” (GABAA receptor) is given as 8.88.
For `O=C1CN=C(c2ccccc2Cl)c2cc(Br)ccc2N1` [Phenazepam, phenazepam], the blood plasma ratio at 1 h, 5 µM [1] is given as 0.57 ± 0.13 and the plasma protein binding [2] is given as 98.3%.
For `O=C1CN=C(c2ccccc2Cl)c2cc([N+](=O)[O-])ccc2N1` [Clonazepam, clonazepam], the blood-to-plasma ratio ([3]; ref 37) is given as 0.65.
In the case of `CN(C)CCCN1c2ccccc2Sc2ccc(Cl)cc21` [Chlorpromazine, chlorpromazine], the blood plasma ratio at 1 h, 5 µM [1] is given as 1.43 ± 0.32 and the “Kb/p literature (blood-to-plasma ratio)” value [3] is given as 1.17–1.56.
For `O=C1Nc2ccc(Cl)cc2C(c2ccccc2Cl)=NC1O` (stereo not drawn) [lorazepam], the blood-to-plasma ratio ([3]; ref 16) is given as 0.60 and the blood-to-plasma ratio ([3]; ref 38) is given as 1.14.
In the case of `O=C1CN=C(c2ccccc2)c2cc([N+](=O)[O-])ccc2N1` [Nitrazepam, nitrazepam], the blood plasma ratio at 1 h, 5 µM [1] is given as 0.63 ± 0.02, the blood-to-plasma ratio ([3]; calculated from literature whole blood and plasma concentrations (125-I radioimmunoassay)) is given as 0.57 ± 0.27 and the blood-to-plasma ratio ([3]; commonly reported value, origin unclear) is given as 1.0. The “Kb/p literature (blood-to-plasma ratio)” value [3] was 0.57–1.00.
In the case of `CN1C(=O)CN=C(c2ccccc2Cl)c2cc(Cl)ccc21` [Diclazepam, diclazepam], the “Kb/p experimental (blood-to-plasma ratio)” value [1] is listed as 0.82 ± 0.05 and the plasma protein binding [2] is listed as 93.8%.
Molecule `C[C@@H]1N=C(c2ccccc2Cl)c2cc([N+](=O)[O-])ccc2NC1=O` [Meclonazepam, meclonazepam] has a blood plasma ratio at 1 h, 5 µM [1] of 0.83 ± 0.08.
For `Cc1nnc2n1-c1ccc(Br)cc1C(c1ccccn1)=NC2` [Pyrazolam, pyrazolam], the “Kb/p experimental (blood-to-plasma ratio)” value [1] is listed as 1.18 ± 0.03 and the plasma protein binding [2] is listed as 78.7%.
For `Cc1nnc2n1-c1sc(Cl)cc1C(c1ccccc1F)=NC2` [Fluclotizolam], the “dose reported as having a 'heavy effect'” value [4] is given as “more than 0.75 mg”.
In the case of `C=C[C@H]1C[N@@]2CC[C@H]1C[C@H]2[C@H](O)c1ccnc2ccc(OC)cc12` [Quinine, quinine], the blood plasma ratio at 1 h, 5 µM [1] is listed as 1.66 ± 0.52 and the “Kb/p literature (blood-to-plasma ratio)” value [3] is listed as 1.46–2.00.
For `CCc1cc2c(s1)-n1c(C)nnc1CN=C2c1ccccc1Cl` [Etizolam, etizolam], the blood plasma ratio at 1 h, 5 µM [1] is listed as 0.7 ± 0.03 and the plasma protein binding [2] is listed as 92.8%.

Reference: publication PMC9715504, “The blood-to-plasma ratio and predicted GABAA-binding affinity of designer benzodiazepines” (Forensic Toxicology, 2022)
